Assay results reported in article PMC5666424, “Marine-Derived 2-Aminoimidazolone Alkaloids. Leucettamine B-Related Polyandrocarpamines Inhibit Mammalian and Protozoan DYRK & CLK Kinases” (Marine Drugs, 2017).

What was measured:
Experiment in all cases: KinomeScan
Type in all cases: binding
Conditions in all cases: 1 μM
[1] = biological target: T1, ABL1(F317I)-nonphosphorylated (Homo sapiens, UniProt P00519, F317I)
T1 construct: purchased DiscoverX (KINOMEscan)

MARK4 = biological target: T2, MARK4 (Homo sapiens, UniProt Q96L34)
T2 construct: purchased DiscoverX (KINOMEscan)

EGFR(G719S) = biological target: T3, EGFR(G719S) (Homo sapiens, UniProt P00533, G719S)
T3 construct: purchased DiscoverX (KINOMEscan)

HCK = biological target: T4, HCK (Homo sapiens, UniProt P08631)
T4 construct: purchased DiscoverX (KINOMEscan)

CDK8 = biological target: T5, CDK8 (Homo sapiens, UniProt P49336)
T5 construct: purchased DiscoverX (KINOMEscan)

NEK4 = biological target: T6, NEK4 (Homo sapiens, UniProt P51957)
T6 construct: purchased DiscoverX (KINOMEscan)

FLT4 = biological target: T7, FLT4 (Homo sapiens, UniProt P35916)
T7 construct: purchased DiscoverX (KINOMEscan)

GAK = biological target: T8, GAK (Homo sapiens, UniProt O14976)
T8 construct: purchased DiscoverX (KINOMEscan)

DAPK3 = biological target: T9, DAPK3 (Homo sapiens, UniProt O43293)
T9 construct: purchased DiscoverX (KINOMEscan)

EGFR(T790M) = biological target: T10, EGFR(T790M) (Homo sapiens, UniProt P00533, T790M)
T10 construct: purchased DiscoverX (KINOMEscan)

HIPK2 = biological target: T11, HIPK2 (Homo sapiens, UniProt Q9H2X6)
T11 construct: purchased DiscoverX (KINOMEscan)

TNIK = biological target: T12, TNIK (Homo sapiens, UniProt Q9UKE5)
T12 construct: purchased DiscoverX (KINOMEscan)

EIF2AK1 = biological target: T13, EIF2AK1 (Homo sapiens, UniProt Q9BQI3)
T13 construct: purchased DiscoverX (KINOMEscan)

IRAK4 = biological target: T14, IRAK4 (Homo sapiens, UniProt Q9NWZ3)
T14 construct: purchased DiscoverX (KINOMEscan)

DCAMKL3 = biological target: T15, DCAMKL3 (Homo sapiens, UniProt Q9C098)
T15 construct: purchased DiscoverX (KINOMEscan)

MET(Y1235D) = biological target: T16, MET(Y1235D) (Homo sapiens, UniProt P08581, Y1235D)
T16 construct: purchased DiscoverX (KINOMEscan)

ACVR1 = biological target: T17, ACVR1 (Homo sapiens, UniProt Q04771)
T17 construct: purchased DiscoverX (KINOMEscan)

CDK11 = biological target: T18, CDK11 (Homo sapiens, UniProt Q9BWU1)
T18 construct: purchased DiscoverX (KINOMEscan)

CDK3 = biological target: T19, CDK3 (Homo sapiens, UniProt Q00526)
T19 construct: purchased DiscoverX (KINOMEscan)

MRCKB = biological target: T20, MRCKB (Homo sapiens, UniProt Q9Y5S2)
T20 construct: purchased DiscoverX (KINOMEscan)

MARK2 = biological target: T21, MARK2 (Homo sapiens, UniProt Q7KZI7)
T21 construct: purchased DiscoverX (KINOMEscan)

KIT(V559D) = biological target: T22, KIT(V559D) (Homo sapiens, UniProt P10721, V559D)
T22 construct: purchased DiscoverX (KINOMEscan)

MLK3 = biological target: T23, MLK3 (Homo sapiens, UniProt Q16584)
T23 construct: purchased DiscoverX (KINOMEscan)

MEK5 = biological target: T24, MEK5 (Homo sapiens, UniProt Q13163)
T24 construct: purchased DiscoverX (KINOMEscan)

FYN = biological target: T25, FYN (Homo sapiens, UniProt P06241)
T25 construct: purchased DiscoverX (KINOMEscan)

NIM1 = biological target: T26, NIM1 (Homo sapiens, UniProt Q8IY84)
T26 construct: purchased DiscoverX (KINOMEscan)

TGFBR1 = biological target: T27, TGFBR1 (Homo sapiens, UniProt P36897)
T27 construct: purchased DiscoverX (KINOMEscan)

TRPM6 = biological target: T28, TRPM6 (Homo sapiens, UniProt Q9BX84)
T28 construct: purchased DiscoverX (KINOMEscan)

EPHA5 = biological target: T29, EPHA5 (Homo sapiens, UniProt P54756)
T29 construct: purchased DiscoverX (KINOMEscan)

CSNK1G1 = biological target: T30, CSNK1G1 (Homo sapiens, UniProt Q9HCP0)
T30 construct: purchased DiscoverX (KINOMEscan)

EGFR = biological target: T31, EGFR (Homo sapiens, UniProt P00533)
T31 construct: purchased DiscoverX (KINOMEscan)

CSNK1G2 = biological target: T32, CSNK1G2 (Homo sapiens, UniProt P78368)
T32 construct: purchased DiscoverX (KINOMEscan)

LRRK2 = biological target: T33, LRRK2 (Homo sapiens, UniProt Q5S007)
T33 construct: purchased DiscoverX (KINOMEscan)

ERBB4 = biological target: T34, ERBB4 (Homo sapiens, UniProt Q15303)
T34 construct: purchased DiscoverX (KINOMEscan)

ABL1-nonphosphorylated = biological target: T35, ABL1-nonphosphorylated (Homo sapiens, UniProt P00519)
T35 construct: purchased DiscoverX (KINOMEscan)

MST4 = biological target: T36, MST4 (Homo sapiens, UniProt Q9P289)
T36 construct: purchased DiscoverX (KINOMEscan)

STK33 = biological target: T37, STK33 (Homo sapiens, UniProt Q9BYT3)
T37 construct: purchased DiscoverX (KINOMEscan)

T34 sequence (Q15303 26-1308): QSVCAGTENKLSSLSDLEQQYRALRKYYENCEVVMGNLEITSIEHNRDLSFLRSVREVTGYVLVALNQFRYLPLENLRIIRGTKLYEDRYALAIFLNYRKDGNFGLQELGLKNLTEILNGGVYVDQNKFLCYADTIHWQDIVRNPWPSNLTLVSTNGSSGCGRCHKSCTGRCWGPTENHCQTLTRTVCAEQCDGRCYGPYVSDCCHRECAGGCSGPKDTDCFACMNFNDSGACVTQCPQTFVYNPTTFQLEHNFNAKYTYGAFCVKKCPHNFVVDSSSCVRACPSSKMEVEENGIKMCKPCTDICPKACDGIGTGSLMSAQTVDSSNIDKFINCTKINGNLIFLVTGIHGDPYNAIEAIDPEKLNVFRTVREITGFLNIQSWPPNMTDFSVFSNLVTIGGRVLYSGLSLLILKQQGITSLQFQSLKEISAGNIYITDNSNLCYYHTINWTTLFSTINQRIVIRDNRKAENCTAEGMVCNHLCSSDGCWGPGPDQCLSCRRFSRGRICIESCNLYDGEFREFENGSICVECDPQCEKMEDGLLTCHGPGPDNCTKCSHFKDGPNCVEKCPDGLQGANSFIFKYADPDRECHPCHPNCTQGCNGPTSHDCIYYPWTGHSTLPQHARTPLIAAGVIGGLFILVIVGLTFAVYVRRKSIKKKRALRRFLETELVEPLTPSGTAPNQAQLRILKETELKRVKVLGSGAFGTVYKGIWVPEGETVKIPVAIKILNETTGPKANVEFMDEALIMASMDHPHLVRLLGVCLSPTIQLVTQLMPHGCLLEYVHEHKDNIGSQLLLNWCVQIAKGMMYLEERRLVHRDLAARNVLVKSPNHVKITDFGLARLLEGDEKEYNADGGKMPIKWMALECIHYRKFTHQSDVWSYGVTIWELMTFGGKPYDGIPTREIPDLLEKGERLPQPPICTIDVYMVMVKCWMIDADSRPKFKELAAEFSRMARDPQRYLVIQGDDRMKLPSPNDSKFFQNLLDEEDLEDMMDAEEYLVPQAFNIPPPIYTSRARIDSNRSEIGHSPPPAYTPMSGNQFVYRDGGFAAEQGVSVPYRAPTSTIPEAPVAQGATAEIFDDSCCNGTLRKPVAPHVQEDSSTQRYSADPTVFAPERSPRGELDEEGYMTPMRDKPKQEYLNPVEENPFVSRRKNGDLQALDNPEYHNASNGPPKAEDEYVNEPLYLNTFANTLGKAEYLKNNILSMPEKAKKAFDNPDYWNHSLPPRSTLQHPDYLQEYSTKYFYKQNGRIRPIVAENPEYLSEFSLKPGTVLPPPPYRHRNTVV
T26 sequence (Q8IY84 whole entry): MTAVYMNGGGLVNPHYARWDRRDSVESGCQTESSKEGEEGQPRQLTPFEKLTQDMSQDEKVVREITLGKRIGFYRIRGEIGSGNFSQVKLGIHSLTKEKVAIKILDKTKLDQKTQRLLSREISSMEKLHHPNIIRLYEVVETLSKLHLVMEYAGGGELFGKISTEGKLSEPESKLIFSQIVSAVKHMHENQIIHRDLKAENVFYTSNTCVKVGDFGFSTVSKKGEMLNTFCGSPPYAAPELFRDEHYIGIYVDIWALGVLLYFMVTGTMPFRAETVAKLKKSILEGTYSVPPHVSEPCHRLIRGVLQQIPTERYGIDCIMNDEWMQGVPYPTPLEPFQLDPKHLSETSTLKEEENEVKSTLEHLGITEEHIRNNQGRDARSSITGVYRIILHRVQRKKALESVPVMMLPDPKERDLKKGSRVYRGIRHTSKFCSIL
T14 sequence (Q9NWZ3 whole entry): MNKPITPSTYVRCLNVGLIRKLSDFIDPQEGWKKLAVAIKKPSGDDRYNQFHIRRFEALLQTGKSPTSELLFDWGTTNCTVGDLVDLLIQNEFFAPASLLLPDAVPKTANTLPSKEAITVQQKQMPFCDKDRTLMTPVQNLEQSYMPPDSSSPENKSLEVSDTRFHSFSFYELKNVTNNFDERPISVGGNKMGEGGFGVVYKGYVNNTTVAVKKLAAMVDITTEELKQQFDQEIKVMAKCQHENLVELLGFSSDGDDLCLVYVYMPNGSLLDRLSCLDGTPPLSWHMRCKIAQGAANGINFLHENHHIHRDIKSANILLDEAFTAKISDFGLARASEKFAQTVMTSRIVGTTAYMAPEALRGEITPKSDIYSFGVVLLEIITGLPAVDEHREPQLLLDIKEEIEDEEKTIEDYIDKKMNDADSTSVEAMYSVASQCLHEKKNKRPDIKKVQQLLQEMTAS
T28 sequence (Q9BX84 whole entry): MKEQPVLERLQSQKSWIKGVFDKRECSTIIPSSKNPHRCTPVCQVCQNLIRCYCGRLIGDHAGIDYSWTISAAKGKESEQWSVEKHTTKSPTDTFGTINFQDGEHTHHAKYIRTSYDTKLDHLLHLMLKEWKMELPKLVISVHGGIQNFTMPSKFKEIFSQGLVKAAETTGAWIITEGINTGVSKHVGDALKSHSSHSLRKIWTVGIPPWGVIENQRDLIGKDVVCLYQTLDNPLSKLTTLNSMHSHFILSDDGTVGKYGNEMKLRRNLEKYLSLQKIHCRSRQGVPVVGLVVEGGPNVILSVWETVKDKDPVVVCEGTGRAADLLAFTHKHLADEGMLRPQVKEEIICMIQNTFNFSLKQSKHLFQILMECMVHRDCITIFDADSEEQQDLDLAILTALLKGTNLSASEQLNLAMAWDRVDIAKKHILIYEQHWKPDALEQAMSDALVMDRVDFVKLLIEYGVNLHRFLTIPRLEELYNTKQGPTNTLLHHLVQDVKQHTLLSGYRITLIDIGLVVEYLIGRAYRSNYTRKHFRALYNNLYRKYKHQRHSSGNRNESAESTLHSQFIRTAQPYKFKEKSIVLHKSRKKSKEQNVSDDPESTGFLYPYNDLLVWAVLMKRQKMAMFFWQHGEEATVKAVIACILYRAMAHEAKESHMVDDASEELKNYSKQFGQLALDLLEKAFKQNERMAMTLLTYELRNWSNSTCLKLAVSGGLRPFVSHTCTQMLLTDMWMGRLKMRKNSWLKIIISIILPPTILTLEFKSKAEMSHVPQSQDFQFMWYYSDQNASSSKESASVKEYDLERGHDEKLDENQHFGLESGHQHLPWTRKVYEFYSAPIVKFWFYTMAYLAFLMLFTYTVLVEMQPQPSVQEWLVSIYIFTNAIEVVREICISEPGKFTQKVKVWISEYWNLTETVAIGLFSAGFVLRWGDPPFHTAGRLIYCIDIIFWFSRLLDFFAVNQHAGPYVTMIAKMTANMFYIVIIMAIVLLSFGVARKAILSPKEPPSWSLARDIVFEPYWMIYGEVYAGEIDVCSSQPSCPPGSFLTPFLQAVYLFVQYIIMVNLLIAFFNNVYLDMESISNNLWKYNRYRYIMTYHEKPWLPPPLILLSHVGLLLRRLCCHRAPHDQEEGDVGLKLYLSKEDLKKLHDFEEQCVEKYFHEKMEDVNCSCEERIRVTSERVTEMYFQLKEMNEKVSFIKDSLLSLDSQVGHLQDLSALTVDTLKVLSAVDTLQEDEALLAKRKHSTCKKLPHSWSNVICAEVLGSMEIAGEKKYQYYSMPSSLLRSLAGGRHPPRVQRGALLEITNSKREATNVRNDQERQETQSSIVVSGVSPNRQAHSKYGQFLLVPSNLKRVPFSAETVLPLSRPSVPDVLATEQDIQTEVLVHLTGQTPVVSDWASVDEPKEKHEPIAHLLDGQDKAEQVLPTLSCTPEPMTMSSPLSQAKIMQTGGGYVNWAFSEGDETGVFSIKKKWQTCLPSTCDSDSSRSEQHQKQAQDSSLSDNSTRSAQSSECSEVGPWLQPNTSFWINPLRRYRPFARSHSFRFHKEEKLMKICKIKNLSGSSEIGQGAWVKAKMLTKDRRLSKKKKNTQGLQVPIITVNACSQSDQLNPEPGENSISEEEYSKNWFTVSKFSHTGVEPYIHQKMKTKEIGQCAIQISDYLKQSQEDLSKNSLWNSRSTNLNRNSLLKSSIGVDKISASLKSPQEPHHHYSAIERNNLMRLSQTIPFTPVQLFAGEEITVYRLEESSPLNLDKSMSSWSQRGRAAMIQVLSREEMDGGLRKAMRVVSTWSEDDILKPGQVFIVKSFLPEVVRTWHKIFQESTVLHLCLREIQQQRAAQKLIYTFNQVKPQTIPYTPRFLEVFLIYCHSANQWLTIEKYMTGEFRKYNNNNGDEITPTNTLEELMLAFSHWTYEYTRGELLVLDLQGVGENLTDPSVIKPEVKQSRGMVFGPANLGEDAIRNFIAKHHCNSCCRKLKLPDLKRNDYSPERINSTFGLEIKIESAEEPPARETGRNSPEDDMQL
T15 sequence (Q9C098 whole entry): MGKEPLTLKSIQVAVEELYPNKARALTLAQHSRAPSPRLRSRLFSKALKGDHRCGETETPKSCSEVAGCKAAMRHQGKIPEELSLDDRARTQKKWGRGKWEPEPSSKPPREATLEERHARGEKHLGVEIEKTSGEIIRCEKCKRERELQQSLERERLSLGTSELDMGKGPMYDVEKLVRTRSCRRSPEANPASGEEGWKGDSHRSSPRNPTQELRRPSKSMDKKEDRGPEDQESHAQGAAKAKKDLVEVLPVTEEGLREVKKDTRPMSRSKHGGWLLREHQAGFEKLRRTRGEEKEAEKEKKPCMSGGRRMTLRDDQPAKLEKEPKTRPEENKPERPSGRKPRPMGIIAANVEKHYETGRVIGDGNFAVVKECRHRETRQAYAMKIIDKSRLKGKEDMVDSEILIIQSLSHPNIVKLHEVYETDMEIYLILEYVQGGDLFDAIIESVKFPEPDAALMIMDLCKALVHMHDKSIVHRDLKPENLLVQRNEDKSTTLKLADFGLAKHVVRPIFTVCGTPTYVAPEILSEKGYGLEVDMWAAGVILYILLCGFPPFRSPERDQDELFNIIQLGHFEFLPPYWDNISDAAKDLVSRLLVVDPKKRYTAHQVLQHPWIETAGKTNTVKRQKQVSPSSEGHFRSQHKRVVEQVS

Q: Which Score [1] does the source give for COc1cc(/C=C2\N=C(N)NC2=O)ccc1O [Polyandrocarpamine A] here?
A: The Score was 92.

Q: And the Score (MARK4)?
A: Its Score is 100.

Q: And the Score (EGFR(G719S))?
A: Its Score is 100.

Q: What about the Score (HCK) of the same molecule?
A: The Score was 100.

Q: And the Score (CDK8)?
A: The Score was 100.

Q: And the Score (NEK4)?
A: The Score was 100.

Q: And the Score (FLT4)?
A: Its Score is 100.

Q: And the Score (GAK)?
A: Its Score is 100.

Q: What about the Score (DAPK3) of the same molecule?
A: Its Score is 50.

Q: What about the Score (EGFR(T790M)) of the same molecule?
A: The Score was 93.

Q: And the Score (HIPK2)?
A: Its Score is 50.

Q: And the Score (TNIK)?
A: The Score was 100.

Q: And the Score (EIF2AK1)?
A: Its Score is 100.

Q: And the Score (IRAK4)?
A: Its Score is 46.

Q: What about the Score (DCAMKL3) of the same molecule?
A: The Score was 94.

Q: What about the Score (MET(Y1235D)) of the same molecule?
A: Its Score is 100.

Q: What about the Score (ACVR1) of the same molecule?
A: Its Score is 100.

Q: What about the Score (CDK11) of the same molecule?
A: Its Score is 100.

Q: What about the Score (CDK3) of the same molecule?
A: Its Score is 100.

Q: What about the Score (MRCKB) of the same molecule?
A: Its Score is 100.

Q: What about the Score (MARK2) of the same molecule?
A: The Score was 100.

Q: And the Score (KIT(V559D))?
A: Its Score is 91.

Q: And the Score (MLK3)?
A: The Score was 100.

Q: What about the Score (MEK5) of the same molecule?
A: The Score was 78.

Q: What about the Score (FYN) of the same molecule?
A: Its Score is 100.

Q: What about the Score (NIM1) of the same molecule?
A: Its Score is 100.

Q: And the Score (TGFBR1)?
A: Its Score is 100.

Q: And the Score (TRPM6)?
A: Its Score is 100.

Q: And the Score (EPHA5)?
A: Its Score is 100.

Q: And the Score (CSNK1G1)?
A: The Score was 100.

Q: What about the Score (EGFR) of the same molecule?
A: The Score was 99.

Q: And the Score (CSNK1G2)?
A: Its Score is 100.

Q: And the Score (LRRK2)?
A: Its Score is 100.

Q: What about the Score (ERBB4) of the same molecule?
A: Its Score is 99.

Q: What about the Score (ABL1-nonphosphorylated) of the same molecule?
A: Its Score is 90.

Q: And the Score (MST4)?
A: The Score was 100.

Q: What about the Score (STK33) of the same molecule?
A: The Score was 100.
